Reference: patent US9249131B2, “Modulators of ATP-binding cassette transporters” (Vertex Pharmaceuticals Incorporated, priority 2003, dated 2016)

Target: T1, ΔF508-CFTR (Homo sapiens, UniProt P13569, DEL508-508)
T1 construct: expressed in transfected cells; host or cells: NIH3T3 mouse fibroblasts stably expressing ΔF508-CFTR for the optical, whole-cell and single-channel assays; Fisher rat epithelial (FRT) cells for Ussing chamber follow-up
Test: Assays for ΔF508-CFTR correction and potentiator properties (membrane potential optical and electrophysiological methods)
Type: cell-based
Settings: CFTR modulation; for % Activity: % Efficacy; for EC50: tested using the above methods
Procedure, shortened: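 NIH3T3 mouse fibroblasts stably expressing ΔF508-CFTR were used, with membrane potential read by DiSBAC2(3)/CC2-DMPE FRET on VIPR. Correctors: 16 h compound exposure at 37 °C, then activation with forskolin plus genistein in Cl⁻-free medium. Potentiators: cells held 24 h at 27 °C, compound added in Cl⁻-free medium, 2-10 μM forskolin 22 s later (final Cl⁻ 28 mM).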

T1 sequence (P13569 with tags, fused parts or gaps DEL508-508): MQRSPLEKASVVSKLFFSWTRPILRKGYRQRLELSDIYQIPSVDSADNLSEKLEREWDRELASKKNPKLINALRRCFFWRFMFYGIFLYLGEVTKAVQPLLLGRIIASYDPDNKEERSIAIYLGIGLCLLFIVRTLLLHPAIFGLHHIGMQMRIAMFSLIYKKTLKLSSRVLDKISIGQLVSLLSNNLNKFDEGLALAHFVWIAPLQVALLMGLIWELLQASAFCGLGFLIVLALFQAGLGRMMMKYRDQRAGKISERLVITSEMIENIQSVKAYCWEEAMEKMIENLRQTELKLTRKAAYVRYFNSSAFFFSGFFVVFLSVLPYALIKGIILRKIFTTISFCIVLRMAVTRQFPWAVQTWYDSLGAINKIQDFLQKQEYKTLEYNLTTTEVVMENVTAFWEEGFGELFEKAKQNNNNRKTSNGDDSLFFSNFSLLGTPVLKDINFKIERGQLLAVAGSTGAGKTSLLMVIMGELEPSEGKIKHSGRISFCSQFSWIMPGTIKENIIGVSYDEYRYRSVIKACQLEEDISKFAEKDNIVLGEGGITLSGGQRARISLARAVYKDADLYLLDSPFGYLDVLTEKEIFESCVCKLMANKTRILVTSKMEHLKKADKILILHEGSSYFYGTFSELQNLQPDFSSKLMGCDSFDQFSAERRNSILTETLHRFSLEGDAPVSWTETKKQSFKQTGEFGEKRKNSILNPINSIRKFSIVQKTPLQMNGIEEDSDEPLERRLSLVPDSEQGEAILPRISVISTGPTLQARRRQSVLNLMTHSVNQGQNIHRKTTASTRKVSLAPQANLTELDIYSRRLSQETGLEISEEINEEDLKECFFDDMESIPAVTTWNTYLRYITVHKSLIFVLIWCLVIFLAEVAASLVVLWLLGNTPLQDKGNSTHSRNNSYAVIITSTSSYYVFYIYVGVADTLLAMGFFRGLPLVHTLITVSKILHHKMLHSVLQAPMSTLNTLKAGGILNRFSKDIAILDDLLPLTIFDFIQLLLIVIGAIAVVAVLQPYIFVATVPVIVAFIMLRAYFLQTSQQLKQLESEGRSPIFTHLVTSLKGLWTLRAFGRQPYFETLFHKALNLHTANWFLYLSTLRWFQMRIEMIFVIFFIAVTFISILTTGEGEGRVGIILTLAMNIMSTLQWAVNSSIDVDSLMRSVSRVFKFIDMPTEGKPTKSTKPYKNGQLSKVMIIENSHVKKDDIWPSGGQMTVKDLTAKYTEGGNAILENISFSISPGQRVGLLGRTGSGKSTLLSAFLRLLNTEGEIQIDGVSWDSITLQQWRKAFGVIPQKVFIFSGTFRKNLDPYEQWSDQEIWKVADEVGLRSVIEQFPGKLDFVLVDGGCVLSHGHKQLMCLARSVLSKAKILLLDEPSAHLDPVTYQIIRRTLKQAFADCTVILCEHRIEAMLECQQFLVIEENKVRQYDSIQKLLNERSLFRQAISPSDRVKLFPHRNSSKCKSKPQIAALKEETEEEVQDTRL

| SMILES | % Activity | EC50 |
| --- | --- | --- |
| CCC(C)C(C(=O)Nc1ncc(Cc2ccccc2)s1)c1ccccc1 (centres unmarked) [compound 98] | ++ (“++” means between 25% to 100%) | < 10 µM |
| COc1ccccc1Cc1cnc(NC(=O)CC(C)c2ccccc2)s1 (centres unmarked) [compound 274] | ++ (“++” means between 25% to 100%) | 25 to 60 µM |
| CCC(=O)Nc1ncc(Cc2ccccc2Cl)s1 [compound 208] | ++ (“++” means between 25% to 100%) | 25 to 60 µM |
| CC(C)C(C(=O)Nc1nc(-c2ccncc2)cs1)c1ccc(F)cc1F (centres unmarked) [compound 34] | ++ (“++” means between 25% to 100%) | 10 to 25 µM |
| COc1ccccc1Cc1cnc(NC(=O)C(c2ccccc2)C2CCCCC2)s1 (centres unmarked) [compound 132] | ++ (“++” means between 25% to 100%) | < 10 µM |
| O=C(Nc1ncc(Cc2ccccc2)s1)C(c1ccccc1)C1CCCCC1 (centres unmarked) [compound 139] | ++ (“++” means between 25% to 100%) | < 10 µM |
| CCC(C(=O)Nc1ncc(Cc2ccccc2Cl)s1)c1cccnc1 (centres unmarked) [compound 255] | ++ (“++” means between 25% to 100%) | < 10 µM |
| CC[C@@H](C(=O)Nc1ncc(Cc2ccccc2Cl)s1)c1ccccc1 [compound 201] | +++ (“+++” means >100%) | < 10 µM |
| CCC(C(=O)Nc1ncc(Cc2ccc(Cl)cc2)o1)c1ccccc1 (centres unmarked) [compound 146] | ++ (“++” means between 25% to 100%) | < 10 µM |
| O=C(Nc1ncc(Cc2ccccc2)s1)C(c1ccccc1)C1CCCC1 (centres unmarked) [compound 101] | ++ (“++” means between 25% to 100%) | < 10 µM |
| CCC(C(=O)Nc1nc2c(s1)C(=O)CCC2)c1ccccc1 (centres unmarked) [compound 289] | ++ (“++” means between 25% to 100%) | 25 to 60 µM |
| CCC(Nc1ccccc1)C(=O)Nc1ncc(Cc2ccccc2Cl)s1 (centres unmarked) [compound 251] | ++ (“++” means between 25% to 100%) | < 10 µM |
| CN(C)C(C(=O)Nc1ncc(Cc2ccccc2Cl)s1)c1ccccc1 (centres unmarked) [compound 211] | ++ (“++” means between 25% to 100%) | < 10 µM |
| O=C(Nc1ncc(Cc2ccccc2Cl)o1)C1Cc2ccccc21 (centres unmarked) [compound 188] | ++ (“++” means between 25% to 100%) | 25 to 60 µM |
| CCOC(=O)C1CCN(C(C(=O)Nc2ncc(Cc3ccccc3Cl)s2)c2ccccc2)CC1 (centres unmarked) [compound 247] | +++ (“+++” means >100%) | < 10 µM |
| CCCCc1ccc(C(=O)Nc2nccs2)cc1 [compound 16] | +++ (“+++” means >100%) | < 10 µM |
| CC(CC(=O)Nc1ncc(Cc2ccccc2Cl)s1)c1ccccc1 (centres unmarked) [compound 271] | ++ (“++” means between 25% to 100%) | < 10 µM |
| CCCc1nc(NC(=O)C(CC)c2ccccc2)sc1C(=O)OCC (centres unmarked) [compound 288] | ++ (“++” means between 25% to 100%) | < 10 µM |
| CCC(C(=O)Nc1ncc(C(O)c2ccccc2Cl)s1)c1ccccc1 (centres unmarked) [compound 263] | ++ (“++” means between 25% to 100%) | < 10 µM |
| CCC(Oc1ccccc1)C(=O)Nc1ncc(Cc2ccccc2Cl)s1 (centres unmarked) [compound 252] | ++ (“++” means between 25% to 100%) | 10 to 25 µM |
| CC1CCCN(C(C(=O)Nc2ncc(Cc3ccccc3Cl)s2)c2ccccc2)C1 (centres unmarked) [compound 243] | +++ (“+++” means >100%) | < 10 µM |
| Cc1nc(NC(=O)COc2ccccc2C(C)C)sc1C [compound 64] | +++ (“+++” means >100%) | < 10 µM |
| CC(C)CC(=O)Nc1nc(-c2ccccc2)cs1 [compound 86] | ++ (“++” means between 25% to 100%) | 10 to 25 µM |
| COc1ccccc1Cc1cnc(NC(=O)C(C)c2ccccc2)s1 (centres unmarked) [compound 135] | ++ (“++” means between 25% to 100%) | < 10 µM |
| O=C(Nc1ncc(Cc2ccccc2Cl)s1)C(c1ccccc1)N1CCOCC1 (centres unmarked) [compound 214] | ++ (“++” means between 25% to 100%) | 10 to 25 µM |
| CC(C)C(C(=O)Nc1ncc(Cc2cccc(Cl)c2)s1)c1ccccc1 (centres unmarked) [compound 130] | +++ (“+++” means >100%) | < 10 µM |
| O=C(Nc1ncc(Cc2ccccc2Cl)s1)C1CCCCC1 [compound 29] | ++ (“++” means between 25% to 100%) | < 10 µM |

The remaining lines, values ahead:

| % Activity | EC50 | SMILES |
| --- | --- | --- |
| ++ (“++” means between 25% to 100%) | < 10 µM | COc1ccccc1Cc1cnc(NC(=O)C2c3ccccc3Oc3ccccc32)s1 [compound 140] |
| +++ (“+++” means >100%) | < 10 µM | Cc1ccc(C(=O)Nc2nc(-c3ccccc3)c(-c3ccccc3)s2)cc1 [compound 52] |
| ++ (“++” means between 25% to 100%) | 10 to 25 µM | Cc1ccc(C(=O)Nc2nc(C)c(C)s2)cc1 [compound 66] |
| ++ (“++” means between 25% to 100%) | 25 to 60 µM | O=C(Nc1ncc(Cc2ccc(Cl)cc2)o1)C(c1ccccc1)c1ccccc1 [compound 143] |
| ++ (“++” means between 25% to 100%) | < 10 µM | O=C(Nc1nc(-c2ccccc2)c(-c2ccccc2)s1)C1CCCCC1 [compound 114] |
| +++ (“+++” means >100%) | 10 to 25 µM | Cc1ccc(C(=O)Nc2nc(-c3ccccc3)c(C)s2)cc1 [compound 44] |
| ++ (“++” means between 25% to 100%) | 10 to 25 µM | O=C(Nc1ncc(Cc2ccccc2Cl)s1)c1ccccc1 [compound 28] |
| ++ (“++” means between 25% to 100%) | 10 to 25 µM | Cc1ccc(-c2nc(NC(=O)c3ccc(C#N)cc3)sc2-c2ccccc2)cc1 [compound 45] |
| +++ (“+++” means >100%) | < 10 µM | Cc1ccc(C(=O)Nc2nc(-c3ccc(C)cc3)c(-c3ccccc3)s2)cc1 [compound 39] |
| ++ (“++” means between 25% to 100%) | 10 to 25 µM | COc1cccc(-c2csc(NC(=O)c3ccccc3OC)n2)c1 [compound 80] |
| ++ (“++” means between 25% to 100%) | < 10 µM | CCC(C(=O)Nc1ncc(Cc2ccc(OC)cc2)s1)c1ccccc1 (centres unmarked) [compound 286] |
| +++ (“+++” means >100%) | < 10 µM | COc1cccc(C(=O)Nc2nc(-c3ccccc3)c(-c3ccccc3)s2)c1 [compound 105] |
| +++ (“+++” means >100%) | 10 to 25 µM | CCc1ccccc1OCC(=O)Nc1nc2ccccc2s1 [compound 63] |
| ++ (“++” means between 25% to 100%) | < 10 µM | O=C(Nc1nc(-c2ccccc2Cl)cs1)c1ccccc1 [compound 159] |
| +++ (“+++” means >100%) | 10 to 25 µM | Cc1cccc(C(=O)Nc2nc(-c3ccccc3)cs2)c1 [compound 88] |
| +++ (“+++” means >100%) | 10 to 25 µM | O=C(Nc1nc(-c2cccc(Cl)c2)cs1)c1ccccc1 [compound 160] |
| ++ (“++” means between 25% to 100%) | 10 to 25 µM | Cc1ccc(C(=O)Nc2nc(-c3ccc(C)cc3)cs2)cc1 [compound 47] |

| % Activity | EC50 | SMILES |
| --- | --- | --- |
| ++ (“++” means between 25% to 100%) | < 10 µM | COc1ncccc1Cc1cnc(NC(=O)C(c2ccccc2)c2ccccc2)s1 [compound 282] |
| ++ (“++” means between 25% to 100%) | < 10 µM | Cc1ccccc1C(=O)Nc1nc2c(C)cccc2s1 [compound 40] |
| ++ (“++” means between 25% to 100%) | 25 to 60 µM | CC(C(=O)Nc1ncc(Cc2ccccc2C#N)s1)c1ccccc1 (centres unmarked) [compound 257] |
| ++ (“++” means between 25% to 100%) | < 10 µM | CC(C)C(C(=O)Nc1nc(-c2ccccc2)c(-c2ccccc2)s1)c1ccccc1 (centres unmarked) [compound 174] |
| +++ (“+++” means >100%) | 10 to 25 µM | CCc1ccc(C(=O)Nc2nc3ccccc3s2)cc1 [compound 10] |
| ++ (“++” means between 25% to 100%) | < 10 µM | O=C(Nc1nc(-c2ccccc2)c(-c2ccccc2)s1)c1ccccc1Cl [compound 104] |
| ++ (“++” means between 25% to 100%) | < 10 µM | O=C(Nc1nc(-c2ccccc2)c(-c2ccccc2)s1)C1CCCC1 [compound 113] |
| ++ (“++” means between 25% to 100%) | < 10 µM | O=C(Nc1nc(-c2ccccc2)cs1)C(c1ccccc1)C1CCCC1 (centres unmarked) [compound 169] |
| ++ (“++” means between 25% to 100%) | < 10 µM | CC[C@H](C(=O)Nc1ncc(Cc2ccc(Cl)cc2)s1)c1ccccc1 [compound 205] |
| ++ (“++” means between 25% to 100%) | < 10 µM | O=C(Cc1ccccc1)Nc1nc(-c2cccc3ccccc23)cs1 [compound 46] |
| ++ (“++” means between 25% to 100%) | 10 to 25 µM | O=C(Cc1ccccc1)Nc1ncc(Cc2ccccc2)s1 [compound 32] |
| ++ (“++” means between 25% to 100%) | < 10 µM | CCC(C(=O)Nc1nc2cc(C)c(C)cc2s1)c1ccccc1 (centres unmarked) [compound 267] |
| ++ (“++” means between 25% to 100%) | 10 to 25 µM | O=C(Nc1nc(-c2ccccc2)c(-c2ccccc2)s1)c1ccc(Cl)cc1 [compound 74] |
| ++ (“++” means between 25% to 100%) | 10 to 25 µM | COc1ccccc1C(=O)Nc1nc(-c2ccccc2OC)cs1 [compound 79] |
| ++ (“++” means between 25% to 100%) | 10 to 25 µM | O=C(O)CCCC(=O)Nc1nc(-c2ccccc2)c(-c2ccccc2)s1 [compound 61] |
| ++ (“++” means between 25% to 100%) | < 10 µM | CCC(C)C(C(=O)Nc1nc(-c2ccccc2)c(-c2ccccc2)s1)c1ccccc1 (centres unmarked) [compound 176] |
| ++ (“++” means between 25% to 100%) | 25 to 60 µM | Cc1csc(NC(=O)C(c2ccccc2)c2ccccc2)n1 [compound 279] |
